# “And” between values parts separate entries of the source, which are not always exact repeats. Equal entries are not always repeated. Where a SMILES comes first, the peptide text is derived from it. [ ]: non-standard residue; d: D form. Hyp = O=C(O)[C@@H]1C[C@@H](O)CN1
# Key:
# IFN-gamma = experiment: Example 9 Luminex, LPS hPBMCs: IFN-gamma; type: cell-based, human
# Protocol: (§1) Treatment Human PBMCs were pretreated with YY-101, YDE-011 and YDE-043 or reference compound; Xiidra® at various concentration (ranging from 1 nM to 100 uM) for 2 h before stimulation. An equal volume of 0.5% DMSO was used as a vehicle control. Then, the cells were treated with LPS at 5 ug/ml. The supernatants from treated cells were harvested at 24 h and placed in a 96 well for Luminex cytokine & chemokine profiling using a Luminex 200 multiplex assay (Luminex; R&D system, USA).
# (§2) The main study arm with triplicate wells per group in a 24-well plate: • 1. Blank • 2. PBMC: 0.5% DMSO • 3. PBMC+LPS (5 ug/ml) • 4. PBMC+YY-101 100 uM • 5. PBMC+YY-101 10 uM • 6. PBMC+YY-101 1 uM • 7. PBMC+YY-101 0.1 uM • 8. PBMC+YY-101 0.01 uM • 9. PBMC+LPS (5 ug/ml)+Xiidra®100 uM • 10. PBMC+LPS (5 ug/ml)+Xiidra® 10 uM • 11. PBMC+LPS (5 ug/ml)+Xiidra® 1 uM • 12. PBMC+LPS (5 ug/ml)+Xiidra®0.1 uM • 13. PBMC+LPS (5 ug/ml)+Xiidra®0.01 uM • 14. PBMC+LPS (5 ug/ml)+Xiidra®0.001 uM • 15. PBMC+LPS (5 ug/ml)+YY-101 100 uM • 16. PBMC+LPS (5 ug/ml)+YY-101 10 uM • 17. PBMC+LPS (5 ug/ml)+YY-101 1 uM • 18. PBMC+LPS (5 ug/ml)+YY-101 0.1 uM • 19. PBMC+LPS (5 ug/ml)+YY-101 0.01 uM • 20. PBMC+LPS (5 ug/ml)+YY-101 0.001 uM • 21. PBMC+LPS (5 ug/ml)+YDE-011 100 uM • 22. PBMC+LPS (5 ug/ml)+YDE-011 10 uM • 23. PBMC+LPS (5 ug/ml)+YDE-011 1 uM • 24. PBMC+LPS (5 ug/ml)+YDE-011 0.1 uM • 25. PBMC+LPS (5 ug/ml)+YDE-011 0.01 uM • 26. PBMC+LPS (5 ug/ml)+YDE-011 0.001 uM • 27. PBMC+LPS (5 ug/ml)+YDE-043 100 uM • 28. PBMC+LPS (5 ug/ml)+YDE-043 10 uM • 29. PBMC+LPS (5 ug/ml)+YDE-043 1 uM • 30. PBMC+LPS (5 ug/ml)+YDE-043 0.1 uM • 31. PBMC+LPS (5 ug/ml)+YDE-043 0.01 uM • 32. PBMC+LPS (5 ug/ml)+YDE-043 0.001 uM
# (§3) Multiplex assay was used to measure 30 cytokines and chemokines. The 1:2, 1:10 and 1:200 diluted cell supernatant and serial dilution of the standard were dispensed into a 96 well plate at 50 ul/well. Then, the pre-mixed cocktail of antibody-coated magnetic beads was dispensed at 50 ul/well and incubated at room temperature for 2 h in a horizontal orbital microplate shaker at 800±500 rpm. The beads were washed using a magnetic device to prevent loss. The biotin-antibody was dispensed in 50 ul of each well and incubated at room temperature for 1 h in a shaker at 800±500 rpm. After washing, streptavidin-PE was added at 50 ul/well and incubated at room temperature for 30 min in a shaker under the same conditions. Finally, after washing, wash buffer (100 ul/well) was added to the plate and incubated in a shaker for 2 min. The Luminex™ 200 setting were set according to the manufacturer's protocol. The data was calculated with a standard five-parameter logistic nonlinear regression analysis of the data (xPonent software 4.2, USA). The levels of cytokine/chemokine are normalized to the live cell counts (1×10^5 cells/mL) and presented as concentrations per mL (pg/mL or ng/mL).
# TNF-alpha = experiment: Example 9 Luminex, LPS hPBMCs: TNF-alpha; type: cell-based, human
# Protocol: as §1, §2, §3
# [1] = PBMC + LPS(5 ug/ml) + test article 0.001 uM, Mean
# [2] = PBMC + LPS(5 ug/ml) + test article 0.001 uM, single replicates
# [3] = PBMC + LPS(5 ug/ml) + test article 0.01 uM, Mean
# [4] = PBMC + LPS(5 ug/ml) + test article 0.01 uM, single replicates
# [5] = PBMC + LPS(5 ug/ml) + test article 0.1 uM, Mean
# [6] = PBMC + LPS(5 ug/ml) + test article 0.1 uM, single replicates
# [7] = PBMC + LPS(5 ug/ml) + test article 1 uM, Mean
# [8] = PBMC + LPS(5 ug/ml) + test article 1 uM, single replicates
# [9] = PBMC + LPS(5 ug/ml) + test article 10 uM, Mean
# [10] = PBMC + LPS(5 ug/ml) + test article 10 uM, single replicates
# [11] = PBMC + LPS(5 ug/ml) + test article 100 uM, Mean
# [12] = PBMC + LPS(5 ug/ml) + test article 100 uM, single replicates
# [13] = PBMC + LPS(5 ug/ml) + test article 0.001 uM, individual replicates (1st, 2nd, 3rd)
# [14] = PBMC + LPS(5 ug/ml) + test article 0.01 uM, individual replicates (1st, 2nd, 3rd)
# [15] = PBMC + LPS(5 ug/ml) + test article 0.1 uM, individual replicates (1st, 2nd, 3rd)
# [16] = PBMC + LPS(5 ug/ml) + test article 1 uM, individual replicates (1st, 2nd, 3rd)
# [17] = PBMC + LPS(5 ug/ml) + test article 10 uM, individual replicates (1st, 2nd, 3rd)
# [18] = PBMC + LPS(5 ug/ml) + test article 100 uM, individual replicates (1st, 2nd, 3rd)
smiles,measurement,setting,value
CC(C)C[C@H](NC(=O)CNC(=O)[C@H](CC(C)C)NC(=O)[C@H](CCC(N)=O)NC(=O)CNC(=O)[C@@H]1C[C@@H](O)CN1)C(=O)N[C@@H](C)C(=O)NCC(=O)N1CCC[C@H]1C(=O)N[C@@H](CCCCN)C(=O)O [YDE-011] (H-[Hyp]GQLGLAGPK-OH),Concentration (IFN-gamma),IFN-gamma; [1],773.0 pg/mL
same,conc/live cell (IFN-gamma),IFN-gamma; [1],143.6 pg/10^5
same,Concentration (IFN-gamma),IFN-gamma; [2],624.6 pg/mL and 730.3 pg/mL and 964.1 pg/mL
same,conc/live cell (IFN-gamma),IFN-gamma; [2],138.8 pg/10^5 and 125.9 pg/10^5 and 166.2 pg/10^5
same,Concentration (IFN-gamma),IFN-gamma; [3],792.2 pg/mL
same,conc/live cell (IFN-gamma),IFN-gamma; [3],135.8 pg/10^5
same,Concentration (IFN-gamma),IFN-gamma; [4],773.0 pg/mL and 753.6 pg/mL and 849.9 pg/mL
same,conc/live cell (IFN-gamma),IFN-gamma; [4],124.7 pg/10^5 and 147.8 pg/10^5 and 134.9 pg/10^5
same,Concentration (IFN-gamma),IFN-gamma; [5],812.6 pg/mL
same,conc/live cell (IFN-gamma),IFN-gamma; [5],141.6 pg/10^5
same,Concentration (IFN-gamma),IFN-gamma; [6],892.0 pg/mL and 753.6 pg/mL and 792.3 pg/mL
same,conc/live cell (IFN-gamma),IFN-gamma; [6],135.1 pg/10^5 and 150.7 pg/10^5 and 139.0 pg/10^5
same,Concentration (IFN-gamma),IFN-gamma; [7],987.2 pg/mL
same,conc/live cell (IFN-gamma),IFN-gamma; [7],196.0 pg/10^5
same,Concentration (IFN-gamma),IFN-gamma; [8],1088.2 pg/mL and 909.1 pg/mL and 964.1 pg/mL
same,conc/live cell (IFN-gamma),IFN-gamma; [8],197.9 pg/10^5 and 189.4 pg/10^5 and 200.9 pg/10^5
same,Concentration (IFN-gamma),IFN-gamma; [9],841.5 pg/mL
same,conc/live cell (IFN-gamma),IFN-gamma; [9],158.5 pg/10^5
same,Concentration (IFN-gamma),IFN-gamma; [10],973.6 pg/mL and 861.4 pg/mL and 689.4 pg/mL
same,conc/live cell (IFN-gamma),IFN-gamma; [10],180.3 pg/10^5 and 148.5 pg/10^5 and 146.7 pg/10^5
same,Concentration (IFN-gamma),IFN-gamma; [11],534.1 pg/mL
same,conc/live cell (IFN-gamma),IFN-gamma; [11],88.0 pg/10^5
same,Concentration (IFN-gamma),IFN-gamma; [12],604.8 pg/mL and 492.8 pg/mL and 504.9 pg/mL
same,conc/live cell (IFN-gamma),IFN-gamma; [12],99.1 pg/10^5 and 80.8 pg/10^5 and 84.1 pg/10^5
same,TNF-alpha Concentration,TNF-alpha; [1],1257.3 pg/mL
same,TNF-alpha conc/live cell,TNF-alpha; [1],237.4 pg/10^5
same,TNF-alpha Concentration,TNF-alpha; [13],1245.3 pg/mL and 1240.9 pg/mL and 1285.6 pg/mL
same,TNF-alpha conc/live cell,TNF-alpha; [13],276.7 pg/10^5 and 213.9 pg/10^5 and 221.7 pg/10^5
same,TNF-alpha Concentration,TNF-alpha; [3],1293.5 pg/mL
same,TNF-alpha conc/live cell,TNF-alpha; [3],222.4 pg/10^5
same,TNF-alpha Concentration,TNF-alpha; [14],1285.6 pg/ml (2×) and 1309.5 pg/ml
same,TNF-alpha conc/live cell,TNF-alpha; [14],207.4 pg/10^5 and 252.1 pg/10^5 and 207.9 pg/10^5
same,TNF-alpha Concentration,TNF-alpha; [5],1269.7 pg/mL
same,TNF-alpha conc/live cell,TNF-alpha; [5],223.0 pg/10^5
same,TNF-alpha Concentration,TNF-alpha; [15],1273.7 pg/mL and 1276.6 pg/mL and 1258.7 pg/mL
same,TNF-alpha conc/live cell,TNF-alpha; [15],193.0 pg/10^5 and 255.3 pg/10^5 and 220.8 pg/10^5
same,TNF-alpha Concentration,TNF-alpha; [7],1256.8 pg/mL
same,TNF-alpha conc/live cell,TNF-alpha; [7],250.5 pg/10^5
same,TNF-alpha Concentration,TNF-alpha; [16],1282.6 pg/mL and 1208.1 pg/mL and 1279.6 pg/mL
same,TNF-alpha conc/live cell,TNF-alpha; [16],233.2 pg/10^5 and 251.7 pg/10^5 and 266.6 pg/10^5
same,TNF-alpha Concentration,TNF-alpha; [9],1330.4 pg/mL
same,TNF-alpha conc/live cell,TNF-alpha; [9],253.3 pg/10^5
same,TNF-alpha Concentration,TNF-alpha; [17],1399.2 pg/mL and 1255.8 pg/mL and 1336.4 pg/mL
same,TNF-alpha conc/live cell,TNF-alpha; [17],259.1 pg/10^5 and 216.5 pg/10^5 and 284.3 pg/10^5
same,TNF-alpha Concentration,TNF-alpha; [11],968.4 pg/mL
same,TNF-alpha conc/live cell,TNF-alpha; [11],159.6 pg/10^5
same,TNF-alpha Concentration,TNF-alpha; [18],985.6 pg/mL and 960.5 pg/mL and 959.0 pg/mL
same,TNF-alpha conc/live cell,TNF-alpha; [18],161.6 pg/10^5 and 157.5 pg/10^5 and 159.8 pg/10^5
